Experimental data: patent US8575091B1, “Amylin analogues and pharmaceutical compositions thereof” (Novo Nordisk A/S, priority 2012, dated 2013)
Numbered stars: 1 amine (or outer) side, 2 acyl side, 3 side chain; on linkers, the order of the positions; unused ones are H or OH. Bridge positions count the residues as written; N and C are the ends. Side chains are listed from the residue outwards. Peptide text beside a SMILES is read from it. * marks the point of attachment. C20 diacid = O=C(O)CCCCCCCCCCCCCCCCCCC(=O)*; γGlu = O=C(O)[C@H](CCC(=O)[*:2])N[*:1]

Target: T1, human amylin receptor (amylin 3(a) receptor: human calcitonin receptor + RAMP-3) (Homo sapiens, UniProt O60896+P30988)
T1 construct: expressed in transfected cells
T1 sequence (P30988 25-474): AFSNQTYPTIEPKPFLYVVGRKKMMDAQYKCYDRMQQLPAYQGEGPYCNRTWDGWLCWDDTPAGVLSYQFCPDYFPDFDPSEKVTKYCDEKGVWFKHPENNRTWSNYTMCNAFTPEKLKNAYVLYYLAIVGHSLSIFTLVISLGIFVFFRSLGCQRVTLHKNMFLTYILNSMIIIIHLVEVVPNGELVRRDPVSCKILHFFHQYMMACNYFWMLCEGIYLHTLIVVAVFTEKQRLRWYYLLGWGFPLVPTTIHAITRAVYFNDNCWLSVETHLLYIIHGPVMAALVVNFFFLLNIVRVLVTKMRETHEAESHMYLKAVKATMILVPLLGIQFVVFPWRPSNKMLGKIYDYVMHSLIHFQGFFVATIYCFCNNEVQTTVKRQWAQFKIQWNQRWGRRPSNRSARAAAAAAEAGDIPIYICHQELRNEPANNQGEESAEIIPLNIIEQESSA
T1 sequence (O60896 24-148 partner): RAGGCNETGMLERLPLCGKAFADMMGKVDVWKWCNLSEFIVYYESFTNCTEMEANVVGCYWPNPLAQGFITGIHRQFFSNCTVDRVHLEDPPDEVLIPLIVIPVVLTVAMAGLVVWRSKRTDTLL
Test: Assay (II)a functional assay, human amylin receptor (CRE luciferase, BHK cells)
Format: cell-based

[1] = Table 6, human functional selectivity (hCTR EC50 / hAmylin-R EC50)

Row | Ratio hCT/hAmylin funct. [1] | Ratio hCT/hAmylin funct. (Table 6a, human functional selectivity (hCTR EC50 / hAmylin-R EC50), at least 5) | Ratio hCT/hAmylin funct. (Table 6j, hCTR funct. EC50 / hAmylin-R funct. EC50) | Ratio hCT/hAmylin funct. (Table 6k, hCTR funct. EC50 / hAmylin-R funct. EC50) | Compound
1 | 4.5 | – | – | – | CC[C@H](C)[C@H](NC(=O)[C@H](C)NC(=O)CNC(=O)[C@H](Cc1ccccc1)NC(=O)[C@H](CC(N)=O)NC(=O)[C@@H]1CCCN1C(=O)[C@H](CO)NC(=O)[C@H](CO)NC(=O)[C@H](Cc1c[nH]cn1)NC(=O)[C@H](CCCNC(=N)N)NC(=O)[C@H](CC(C)C)NC(=O)[C@H](Cc1ccccc1)NC(=O)[C@H](C)NC(=O)[C@H](C)NC(=O)[C@H](CC(C)C)NC(=O)[C@H](CCCNC(=N)N)NC(=O)[C@H](CCC(N)=O)NC(=O)[C@@H](NC(=O)[C@H](C)NC(=O)[C@@H]1CSSC[C@H](NC(=O)[C@@H](N)CCCCNC(=O)CC[C@H](NC(=O)CCCCCCCCCCCCCCCCCCC(=O)O)C(=O)O)C(=O)N[C@@H](CC(N)=O)C(=O)N[C@@H]([C@@H](C)O)C(=O)N[C@@H](C)C(=O)N[C@@H]([C@@H](C)O)C(=O)N1)[C@@H](C)O)C(=O)N1CCC[C@H]1C(=O)N[C@@H](CO)C(=O)N[C@@H](CO)C(=O)N[C@H](C(=O)N[C@@H](CC(N)=O)C(=O)N[C@H](C(=O)NCC(=O)N1CCC[C@H]1C(=O)N[C@@H](CC(N)=O)C(=O)N[C@H](C(=O)N[C@@H](Cc1ccc(O)cc1)C(N)=O)[C@@H](C)O)C(C)C)[C@@H](C)O [Example 94] (H-K([γGlu-C20 diacid])CNTATCATQRLAAFLRHSSPNFGAIPSSTNVGPNTY-NH2; disulfide 2-7; N-terminus assumed)
2 | 8.1 | 8.1 | 8.1 | 8.1 | CC[C@H](C)[C@H](NC(=O)[C@H](C)NC(=O)CNC(=O)[C@H](Cc1ccccc1)NC(=O)[C@H](CC(N)=O)NC(=O)[C@@H]1CCCN1C(=O)[C@H](CO)NC(=O)[C@H](CO)NC(=O)[C@H](Cc1c[nH]cn1)NC(=O)[C@H](CCCNC(=N)N)NC(=O)[C@H](CC(C)C)NC(=O)[C@H](Cc1ccccc1)NC(=O)[C@H](CO)NC(=O)[C@H](C)NC(=O)[C@H](CC(C)C)NC(=O)[C@H](CCCNC(=N)N)NC(=O)[C@H](CCC(N)=O)NC(=O)[C@@H](NC(=O)[C@H](C)NC(=O)[C@@H]1CSSC[C@H](NC(=O)[C@@H](N)CCCCNC(=O)CC[C@H](NC(=O)CC[C@H](NC(=O)CCCCCCCCCCCCCCCCCCC(=O)O)C(=O)O)C(=O)O)C(=O)N[C@@H](CC(N)=O)C(=O)N[C@@H]([C@@H](C)O)C(=O)N[C@@H](C)C(=O)N[C@@H]([C@@H](C)O)C(=O)N1)[C@@H](C)O)C(=O)N1CCC[C@H]1C(=O)N[C@@H](CO)C(=O)N[C@@H](CO)C(=O)N[C@H](C(=O)N[C@@H](CC(N)=O)C(=O)N[C@H](C(=O)NCC(=O)N1CCC[C@H]1C(=O)N[C@@H](CCC(=O)O)C(=O)N[C@H](C(=O)N[C@@H](Cc1ccc(O)cc1)C(N)=O)[C@@H](C)O)C(C)C)[C@@H](C)O [Example 120] (H-K([γGlu-γGlu-C20 diacid])CNTATCATQRLASFLRHSSPNFGAIPSSTNVGPETY-NH2; disulfide 2-7 (inferred); N-terminus and C-terminus assumed)
